Legend:
[1] = test system: CD34+ HSPCs derived from cord blood; assay: Fed-batch bioreactor expansion culture of human CD34+ HSPCs; assay type: cell-based; conditions: 500 nM, 12 days of expansion, compared to control FB cultures
Procedure: Umbilical cord blood samples were collected from consenting donors according to ethically approved procedures at Mt. Sinai Hospital (Toronto, ON, Canada). Cells were red blood cell (RBC) depleted as previously described^10, using HetaSep (StemCell Technologies). CD34+ progenitor cells were selected with the EasySep system using a human CD34+ enrichment kit (StemCell Technologies), according to the manufacturer's protocol. Freshly isolated CD34+ cells were seeded at a density of 1×10^5 total cells/mL. Cells were seeded in StemSpan-ACF medium (StemCell Technologies), supplemented with 100 ng/mL Stem Cell Factor (SCF, R&D Systems or CellGenix), 100 ng/mL FMS-like Trysine Kinase 3 Ligand (Flt3L, R&D Systems or CellGenix), 50 ng/mL Thrombopoietin (TPO, R&D Systems or CellGenix), 2 mM GlutaMAX (GIBCO) and/or 500 nM UM729 small molecule. Cells were cultured for 12 days with minimal manual manipulation during the culture period, as previously described^11.
Cells were harvested from either fed-batch or fed-batch+UM729 at day 12 and sorted for CD34+ and CD34− populations. Sorted CD34+ and CD34− cells from both culture methods were seeded along with thawed unexpanded day 0 CD34+ HSPCs at 4000 cells/96-well coated overnight with 20 μg/mL DL4 and 2.3 μg/mL VCAM-1 in serum-free IMDM+BIT medium containing 100 ng/mL SCF, Tpo, Flt3L and IL-7. […]

[2] = test system: human umbilical cord blood-derived CD34+ HSPCs; assay: Human CD34+ HSPC progenitor T cell differentiation on coated plates; assay type: cell-based; conditions: serum-free IMDM+BIT, 9 or 14 days; matrix proteins in conjunction with DL4
Procedure: For human HSPC culture, umbilical cord blood samples were collected from consenting donors according to ethically approved procedures at Mount Sinai Hospital. CD34+ cells were isolated from the red blood cell (RBC)-lysed cord blood fraction using the EasySep™ Human CD34 Positive Selection Kit (Stemcell Technologies) according to the manufacturer's instructions. Flow cytometry was performed after every enrichment to ensure CD34 frequencies were greater than 95%. CD34+ HSPCs were cultured for 14 days on DL4 and VCAM-1 coated 96-well plates at higher seeding densities of 12,500 HSPCs/cm^2 (corresponding to 4000 cells/well). One complete medium exchange was performed at day 7 of culture and cells were returned to the same DL4 and VCAM-1 coated plates. For certain experiments, DL4-Fc was coated alone or with RetroNectin® (Takara Shuzo) or fibronectin (Sigma Aldrich) as described in the text. CD34+ cells were cultured in serum-free Iscove modified Dulbecco medium (Gibco) with 20% bovine serum albumin, insulin, and transferrin serum substitute (BIT; Stemcell Technologies), 1% GlutaMAX™ (Gibco) and 1 μg/mL low-density lipoproteins (Calbiochem). The medium was added at 50 μL/well supplemented with 100 ng/mL SCF (R&D Systems, Minneapolis, MN), 100 ng/mL Flt3L (R&D Systems), 100 ng/mL Tpo (R&D Systems) and 100 ng/mL IL-7 (R&D Systems).
Surface marker staining was performed with conjugated rat anti-mouse antibodies (BD Biosciences, San Jose, CA, Table 1). All samples were analyzed on a FACSCanto™ or FACS LSRFortessa™ flow cytometer (BD Biosciences). At day 7 of culture, cells were lifted off the plate with multiple HF rinses, stained at 1:400 dilution with antibodies against CD45, CD25, CD44, CD90, CD11 b and CD19 for 20 minutes on ice. […] Integrin expression was analyzed using antibodies against α4, β1, and β7 integrin subunits on Sca-1+cKit+ mouse HSPCs and CD34+ human umbilical blood cells. […] Flow data was analyzed and batch processed using FlowJo® software and further analyzed in Python (version 2.7.10).

[3] = test system: Notch pathway (CBF1-Firefly); assay: NIH3T3 luciferase assay for measuring Notch activation; assay type: cell-based
Procedure: NIH3T3 cells were seeded at 125,000 cells/well in a 6-well plate on the previous day and transiently transfected overnight with Notch1, CBF1-Firefly and constitutively active Renilla plasmids using FuGENE® HD transfection reagent (Promega Corporation, Madison WI USA) as per the manufacturer's instructions. Transfected NIH3T3 cells were either seeded on DL4-coated plates or in DL4-conjugated MC for 24 hours prior to measuring Firefly activation normalized to Renilla expression using the dual-luciferase reporter assay system (Promega Corporation, Madison WI USA) according to the manufacturer's instructions.

[4] = test system: sorted sca1+ckit+ fetal-liver HSPCs; assay: Defined T cell differentiation assay on adsorbed ligand, flow cytometry; assay type: cell-based, mouse
Procedure: FIG. 2a: Schematic for 2D coated DL4 assay, in which sorted E13.5 sca1+ckit+ fetal-liver HSPCs are seeded on coated DL4 ligand in standard 96-well flat bottom plates at 1000 cells/well density in 200 μl test media containing cytokines 25 ng/mL SCF, 5 ng/mL Flt3L and 1 ng/mL IL7; cells are re-fed on day 4 with fresh media containing cytokines; on day 7, cells are assayed for surface marker expression using flow cytometry.
Commercially available DL4-Fc was purchased and used for experiments from Sino Biologicals (Cedarlane Labs, Burlington, Ontario, Canada) or manufactured in-house as described below. DL4-Fc was diluted in chilled phosphate-buffered saline (PBS) at 10 μg/mL or […] and 50 μL/well was coated in standard tissue-culture 96-well plates overnight at 4° C. Wells were washed once with PBS prior to seeding cells to remove any unbound ligand from the wells. For certain experiments, wells were also coated overnight with 50 μL/well PBS containing DL4-Fc and VCAM-1-Fc (R&D) or fibronectin (Sigma) at concentrations described herein.
Sorted sca1+ckit+ HSPCs were cultured at 1000 cells/well (corresponding to 3.1×10^3 cells/cm^2) in DL4-coated 96-well plates in serum-free Iscove modified Dulbecco medium (Gibco, Rockville, MD) with 20% bovine serum albumin, insulin, and transferrin serum substitute (BIT; Stemcell Technologies), 1% GlutaMAX™ (Gibco) and 1 μg/mL low-density lipoproteins (Calbiochem, La Jolla, CA) [IMDM+BIT]. For positive control cultures, OP9 serum medium was used, composed of αMEM medium (Gibco) and 16% FBS (Hyclone™, GE Health). Serum-free αMEM+BIT medium was prepared exactly as IMDM+BIT medium except using αMEM (Gibco) as the base medium. OP9 serum medium, αMEM+BIT or IMDM+BIT serum free medium was added at 200 μL/well supplemented with 25 ng/mL Stem Cell Factor (SCF; R&D Systems, Minneapolis, MN), 5 ng/mL FMS-like Tyrosine Kinase 3 Ligand (Flt3L; R&D Systems) and 1 ng/mL Interleukin-7 (IL-7; R&D Systems) with a 50% medium exchange step at day 4 containing 2-fold concentrated cytokines as described previously^9. Design of Experiment (DOE) in silico modeling was performed using Design-Expert® (v10) using response surface method to investigate the combinatorial desirability of different concentrations of SCF, Flt3L and IL-7 for maximizing DN3 T-cell yield and minimizing the volume of IMDM+BIT medium. After DOE optimization, IMDM+BIT serum-free medium was added at 50 μL/well supplemented with 50 ng/mL SCF (R&D Systems), 10 ng/mL Flt3L (R&D Systems) and 10 ng/mL IL-7 (R&D Systems) unless described otherwise in the text with no medium exchange for the length of the assay. For the candidate factor screening in serum-free IMDM+BIT medium, the following proteins or small molecules were used at the concentrations listed: JAK inhibitor I (50 nM; EMD Millipore), IL-11 (10, 50, and 100 ng/mL; R&D Systems), IL-6 (10, 50, and 100 ng/mL; R&D Systems), IL-6R (100 ng/mL; R&D Systems), Ccl25 (1.5 μg/mL; R&D Systems), IL-7 (50, 100, and 200 ng/mL; R&D Systems), SDF1α (Cxcl12; 200 ng/mL; R&D Systems), and Leukemia Inhibitory Factor (LIF; 0.1, 1, and 10 ng/mL; EMD Millipore).
Surface marker staining was performed with conjugated rat anti-mouse antibodies (BD Biosciences, San Jose, CA, Table 1). All samples were analyzed on a FACSCanto™ or FACS LSRFortessa™ flow cytometer (BD Biosciences). At day 7 of culture, cells were lifted off the plate with multiple HF rinses, stained at 1:400 dilution with antibodies against CD45, CD25, CD44, CD90, CD11 b and CD19 for 20 minutes on ice. Human progenitor T-cells were stained at 1:100 dilution with antibodies against CD34, CD7, CD5 and CD45RA. Integrin expression was analyzed using antibodies against α4, β1, and β7 integrin subunits on Sca-1+cKit+ mouse HSPCs and CD34+ human umbilical blood cells. […]

**Q.** COC(=O)c1ccc2c(c1)[nH]c1ncnc(NCCCN3CCCCC3)c12 [UM-729] was tested. Which “CD34− yield” value [1] did it give?
**A.** Its value is “minimized CD34− yield”.

**Q.** What about the “overall CD34+ yield” value [1] of the same molecule?
**A.** The value was “enhanced overall CD34+ yield”.

**Q.** How did the “generation of later stage progenitor T cells from CD34+ HSPCs” value [2] turn out when fibronectin [reference compound] was run?
**A.** The value was “incapable of differentiating CD7+CD34+ progenitors further along the T cell lineage”.

**Q.** With “soluble DL4: DL4 ligand supplied in soluble rather than adsorbed form” as the molecule, how does the “Notch1 intracellular domain translocation (CBF1-luciferase)” value ([3]; soluble DL4 added, cells on immobilized DL4) read?
**A.** The value was “actively inhibits translocation of the intracellular domain of Notch1 receptor”.

**Q.** And the “DN3 cell generation in soluble ligand” value ([4]; 10 μg/mL soluble DL4, day 7)?
**A.** The value was “no DN3 cells were generated”.

**Q.** And the “effect of soluble ligand on induction by adsorbed DL4” value ([4]; mixture of adsorbed and soluble DL4, day 7)?
**A.** Its value is “completely inhibited the inductive effects of adsorbed DL4 ligand”.

B1: IL-7: Interleukin-7 cytokine (R&D Systems) (protein, UniProt P13232 26-177, looked up)
Interleukin-7: DCDIEGKDGKQYESVLMVSIDQLLDSMKEIGSNCLNNEFNFFKRHICDANKEGMFLFRAARKLRQFLKMNSTGDFDLHLLKVSEGTTILLNCTGQVKGRKPAALGEAQPTKSLEENKSLKEQKKLNDLCFLKRLLQEIKTCWNKILMGTKEH
**Q.** For B1, which “DN3 yield with raised IL-7 concentration” value ([4]; IL-7 from 2 to 10 ng/mL, 50-10-10 no-feed condition vs 25-5-1 re-feed control) is on record?
**A.** Its value is “significantly higher yields of T lineage-committed DN3 cells than the control”.

B2: DL1: Delta-like-1 (DL1), alternate Notch-1 ligand (protein, UniProt O00548 18-723, looked up)
Delta-like protein 1: QVWSSGVFELKLQEFVNKKGLLGNRNCCRGGAGPPPCACRTFFRVCLKHYQASVSPEPPCTYGSAVTPVLGVDSFSLPDGGGADSAFSNPIRFPFGFTWPGTFSLIIEALHTDSPDDLATENPERLISRLATQRHLTVGEEWSQDLHSSGRTDLKYSYRFVCDEHYYGEGCSVFCRPRDDAFGHFTCGERGEKVCNPGWKGPYCTEPICLPGCDEQHGFCDKPGECKCRVGWQGRYCDECIRYPGCLHGTCQQPWQCNCQEGWGGLFCNQDLNYCTHHKPCKNGATCTNTGQGSYTCSCRPGYTGATCELGIDECDPSPCKNGGSCTDLENSYSCTCPPGFYGKICELSAMTCADGPCFNGGRCSDSPDGGYSCRCPVGYSGFNCEKKIDYCSSSPCSNGAKCVDLGDAYLCRCQAGFSGRHCDDNVDDCASSPCANGGTCRDGVNDFSCTCPPGYTGRNCSAPVSRCEHAPCHNGATCHERGHRYVCECARGYGGPNCQFLLPELPPGPAVVDLTEKLEGQGGPFPWVAVCAGVILVLMLLLGCAAVVVCVRLRLQKHRPPADPCRGETETMNNLANCQREKDISVSIIGATQIKNTNKKADFHGDHSADKNGFKARYPAVDYNLVQDLKGDDTAVRDAHSKRDTKCQPQGSSGEEKGTPTTLRGGEASERKRPDSGCSTSKDTKYQSVYVISEEKDECVIATEV
**Q.** With B2 as the molecule, how does the “Notch pathway activation (CBF-1 Firefly normalized to Renilla)” value ([3]; 24 hours, DL1-Fc at 10 and 20 μg/mL) read?
**A.** Its value is “unable to sustain progenitor T cell production or activate the Notch pathway at similar coating concentrations as DL4 ligand”.

**Q.** What about the “generation of DN2/DN3 progenitor T cells on adsorbed ligand” value ([4]; same range of coating concentrations as DL4, day 7) of the same molecule?
**A.** The value was “incapable of generating DN2 or DN3 progenitor T cells”.

From patent US12076342B2, “Method for generating progenitor t cells from stem and/or progenitor cells and use of same” (THE GOVERNING COUNCIL OF THE UNIVERSITY OF TORONTO, priority 2016, dated 2024)
